Some test systems named below: SK-MEL-5 melanoma; PC-3 prostate; SK-MEL-2 melanoma; COLO 205 colon; SN12C renal; HOP-62 NSCLC; HOP-92 NSCLC; NCI-H460 lung; OVCAR-3 ovarian; SNB-19 CNS.
Assay in all cases: DTP human tumour cell line panel, 48 h

“And” between values parts separate entries of the source, which are not always exact repeats. Identical values can stand only once.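 How tested: cells in 96-well plates exposed to compound for 48 hours at five concentrations. GI50 is the concentration that inhibits growth by half. TGI: total growth inhibition.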

One may read the TGI as the concentration at which net growth stops. Turning to `O=C(O)[C@@H]1C2CC([C@@H]1C(=O)O)[C@H](N1C(=O)CCC1=O)[C@@H]2Br` (some centres not stated), the TGI in the experiment on SK-MEL-5 melanoma, with PC-3 prostate, with SK-MEL-2 melanoma, with COLO 205 colon, with SN12C renal and in the experiment on HOP-62 NSCLC was more than 100 µM throughout. In addition, the TGI in the experiment on HOP-92 NSCLC, in the experiment on NCI-H460 lung, in the experiment with OVCAR-3 ovarian and in the experiment with SNB-19 CNS was more than 100 µM throughout.
In general, GI50 refers to the concentration that inhibits growth by half. Turning to `CCCN(Cc1ccc(F)cc1)c1ccc(CO)c(Cl)c1`, the GI50 in the experiment with SK-MEL-5 melanoma is 6.51 µM; in the experiment on PC-3 prostate, 11.6 µM; in the experiment with SK-MEL-2 melanoma, 2.99 µM; in the experiment on COLO 205 colon, 3.96 µM; in the experiment on SN12C renal it was 9.42 µM; with HOP-62 NSCLC it was 2.4 µM. The GI50 was 2.66 µM in the experiment on HOP-92 NSCLC, 0.359 µM in the experiment on NCI-H460 lung, 0.662 µM with OVCAR-3 ovarian and 12.7 µM in the experiment with SNB-19 CNS. The total growth inhibition concentration (TGI) in the experiment on SK-MEL-5 melanoma was found to be 19.8 µM; with PC-3 prostate, 24.6 µM; in the experiment on SK-MEL-2 melanoma, 13.3 µM; in the experiment on COLO 205 colon it was 13.6 µM; in the experiment with SN12C renal it was 23.1 µM; in the experiment on HOP-62 NSCLC it was 17.1 µM. For the same compound, the total growth inhibition concentration (TGI) in the experiment with HOP-92 NSCLC turned out to be 14.2 µM; in the experiment on NCI-H460 lung it was 11.5 µM; with OVCAR-3 ovarian, 4.02 µM; in the experiment with SNB-19 CNS, 26.8 µM.
In the case of `CCc1ccc(NCc2cc(OC)c(OC)c(OC)c2)cc1`, the GI50 in the experiment with SK-MEL-5 melanoma was 0.297 µM and 0.104 µM; in the experiment on SK-MEL-2 melanoma it was 0.255 µM and 0.106 µM; in the experiment on COLO 205 colon, 0.251 µM and 0.333 µM; in the experiment on SN12C renal, 0.578 µM and 1.16 µM; in the experiment on HOP-92 NSCLC, 5.24 µM; with NCI-H460 lung it was 0.268 µM and 0.127 µM. Also, the GI50 was 0.348 µM in the experiment on OVCAR-3 ovarian and 1.14 µM with SNB-19 CNS. Further, the TGI in the experiment with SK-MEL-5 melanoma was 7.84 µM and 14.7 µM; with PC-3 prostate, 53 µM and 18.7 µM; in the experiment with SK-MEL-2 melanoma, 23.9 µM and > 54 µM; with COLO 205 colon, 1.3 µM and 1.47 µM; in the experiment on SN12C renal it was 38.4 µM and > 68.7 µM; with HOP-62 NSCLC it was 52.4 µM and 35.5 µM. The concentration for total growth inhibition (TGI) is 22.2 µM and 74.6 µM in the experiment on HOP-92 NSCLC; 25.1 µM and 17 µM in the experiment on NCI-H460 lung; 1.32 µM with OVCAR-3 ovarian; more than 100 µM in the experiment on SNB-19 CNS.
On to `CC12CCC=CC1CCC1C2CCC2(C)C(c3ccc(=O)oc3)CCC12O` (configuration not stated), for which the GI50 with SK-MEL-5 melanoma is 0.0453 µM; in the experiment with PC-3 prostate, 0.0534 µM; in the experiment with SK-MEL-2 melanoma it was 0.25 µM; in the experiment on COLO 205 colon, 0.333 µM; in the experiment on SN12C renal it was 0.0422 µM; in the experiment with HOP-62 NSCLC it was 0.0511 µM. Besides, the GI50 in the experiment with HOP-92 NSCLC was 0.123 µM; in the experiment on OVCAR-3 ovarian it was 0.0614 µM; in the experiment on SNB-19 CNS it was 0.215 µM. The TGI is 0.238 µM in the experiment with SK-MEL-5 melanoma; 0.317 µM with PC-3 prostate; 0.828 µM with SK-MEL-2 melanoma; 1.56 µM in the experiment on COLO 205 colon; 0.571 µM in the experiment with SN12C renal; 0.21 µM in the experiment on HOP-62 NSCLC. The concentration for total growth inhibition (TGI) in the experiment with HOP-92 NSCLC came out at 0.639 µM; in the experiment with OVCAR-3 ovarian it was 0.258 µM; in the experiment on SNB-19 CNS it was 1.23 µM.
In the case of `CC1=C(C(=O)OCc2ccccc2)C(c2ccc3c(c2)OCO3)n2c(nc3ccccc32)N1` (configuration not stated), the GI50 in the experiment on SK-MEL-5 melanoma was 0.472 µM; with PC-3 prostate, 0.458 µM; in the experiment with COLO 205 colon, 0.417 µM; in the experiment with HOP-62 NSCLC it was 8.01 µM; with HOP-92 NSCLC, more than 100 µM; in the experiment on NCI-H460 lung, 0.369 µM. In addition, the figures for the GI50 with OVCAR-3 ovarian and in the experiment on SNB-19 CNS were 0.235 µM and 0.54 µM, respectively. Besides, the TGI with SK-MEL-5 melanoma, with PC-3 prostate, in the experiment with SK-MEL-2 melanoma, with COLO 205 colon, in the experiment on HOP-62 NSCLC and in the experiment on HOP-92 NSCLC was more than 100 µM throughout. Moreover, the values for the TGI with NCI-H460 lung, with OVCAR-3 ovarian and in the experiment with SNB-19 CNS were more than 100 µM, 0.998 µM and more than 100 µM, respectively.
In the case of `N=C(N)c1nn(C2OC(CO)C(O)C2O)c2nc[nH]c(=O)c12` (configuration not stated), the GI50 with SK-MEL-5 melanoma is 0.444 µM; in the experiment with PC-3 prostate it was 0.788 µM; in the experiment with SK-MEL-2 melanoma, 0.19 µM; with COLO 205 colon, 1.01 µM; in the experiment with SN12C renal, 0.315 µM; in the experiment on HOP-62 NSCLC it was 0.3 µM. The GI50 is 1.29 µM with HOP-92 NSCLC, 0.487 µM in the experiment on NCI-H460 lung, 0.836 µM with OVCAR-3 ovarian and 2.34 µM in the experiment with SNB-19 CNS. In addition, the TGI with SK-MEL-5 melanoma is 1.53 µM; in the experiment with PC-3 prostate, 6.74 µM; with SK-MEL-2 melanoma, 0.663 µM; in the experiment with COLO 205 colon, 3.26 µM; with SN12C renal, 2.37 µM; in the experiment with HOP-62 NSCLC, 1.14 µM. In addition, the TGI is 5.93 µM with HOP-92 NSCLC, 9.09 µM in the experiment on NCI-H460 lung, 2.9 µM with OVCAR-3 ovarian and 8.71 µM in the experiment with SNB-19 CNS.
`CC12CCC(=O)C=C1CCC1C2CCC2(C)C(C(=O)Cn3cnc4c(=S)nc[nH]c43)CCC12` (configuration not stated): the TGI with SK-MEL-5 melanoma was more than 100 µM; in the experiment with PC-3 prostate, more than 100 µM; in the experiment on SK-MEL-2 melanoma it was more than 100 µM; in the experiment with COLO 205 colon, more than 100 µM; with SN12C renal, more than 100 µM; in the experiment with HOP-62 NSCLC it was 47.1 µM. For the same compound, the TGI was 37.7 µM with HOP-92 NSCLC, more than 100 µM with NCI-H460 lung, 49.6 µM with OVCAR-3 ovarian and 73.8 µM in the experiment with SNB-19 CNS.
For `CC(C)(C(=O)NN)c1ccccc1`, the TGI with SK-MEL-5 melanoma, in the experiment on PC-3 prostate, with SK-MEL-2 melanoma, with COLO 205 colon, with SN12C renal and in the experiment with HOP-62 NSCLC was more than 100 µM each time. In addition, the concentration for total growth inhibition (TGI) in the experiment with HOP-92 NSCLC, with NCI-H460 lung, in the experiment with OVCAR-3 ovarian and in the experiment with SNB-19 CNS was more than 100 µM throughout.
As for `CC(=O)OC1c2ccccc2CC2(OC(C)=O)c3ccccc3C12` (configuration not stated), the TGI in the experiment on PC-3 prostate, in the experiment on SK-MEL-2 melanoma, in the experiment on COLO 205 colon, in the experiment with SN12C renal, with HOP-62 NSCLC and in the experiment with HOP-92 NSCLC was more than 100 µM each time. The total growth inhibition concentration (TGI) in the experiment with NCI-H460 lung, with OVCAR-3 ovarian and with SNB-19 CNS was more than 100 µM each time.

Values taken from PubChem BioAssay (NCI).
